Columns and labels:
[1] = system: Jurkat E6-1 cells; experiment: Fluorescent Calcium Flux Assay (thapsigargin store depletion, FLIPR Calcium 5 dye); format: cell-based; settings: Homo sapiens, Thapsigargin 10µM, 2mM final calcium concentration, read-out: Ca^2+ flux IC50
Method: Fluorescent Calcium Flux Assay
Jurkat E6-1 cells were obtained from ATCC (number TIB-152™) and maintained as ATCC recommend; in medium RPMI-1640 with 10% FBS at 37°C and 5% CO2.
Before the assay, Jurkat cells were grown at a density of 2 millions cells/ml in cell culture media (RPMI with 10% FBS) in a T-175 flask at 37°C and 5% CO2.
The day of the assay, cells were harvested by centrifugation (5 minutes at 1500 rpm) and the pellet were suspended in Ca^2+ free assay buffer (HBSS w/o Ca^2+ and Mg ^2+, 20mM Hepes and 1 mM MgCl2, pH 7.4) at a density of 5 million cells/ml.
Calcium depletion was initiated by the addition to the cell suspension of Thapsigarguin at a final assay concentration of 10µM. 20µl of the cellular suspension containing Thapsigargin (100.000 cells/well) were plated into 384 well plates (corning 3711) and incubated at RT for 15 minutes.
Test compounds were diluted in DMSO 100% to get a 10^-2M stock solution and serial dilutions 1/3 were performed in the same solvent. Then, 20µl of test compounds, diluted 75 times in Ca^2+ free assay buffer, were added to the cells and incubated at RT for 1h.
Once this incubation was completed, 5 µl of dye solution (FLIPR Calcium 5 Express Kit, Molecular Devices), prepared as Molecular Devices recommend, were added into the assay plates followed by an extra incubation period of 1 hour at room temperature. After the second incubation period, assay plates were placed into the FLIPR Tetra from Molecular Devices. Fluorescence was measured at a wavelength of 525nm after the dye excitation at 485nm. The initial baseline was measured during 20 seconds, and then 8µl of a 13mM Calcium solution in assay buffer were added (2mM final calcium concentration) except for basal wells, where assay buffer without calcium was added. At this time, changes in the cellular fluorescent were measured for an extra 80 seconds.
Peak and base line were taken for the calculation of the ratio (Peak/Base Line). Total, basal and compound well ratio values were used to calculate %Inhibition.

[2] = system: Jurkat E6-1 cells; experiment: In vitro Assay of Cytokine Release from T Cells (PHA-stimulated IL-2, ELISA); format: cell-based; settings: Homo sapiens, PHA 20 µg/ml, 20 hours, IL-2 by ELISA, read-out: Jurkat IL2 IC50
Method: In vitro Assay of Cytokine Release from T Cells
Jurkat E6-1 cells were obtained from American Type Culture Collection (ATCC) and maintained in complete medium with 10% fetal bovine serum (FBS) at 37°C/5%CO2. Cells were plated in 100 µL of Dubelcco's Modified Eagle Medium (DMEM) with 1% FBS in a 96 well plate at a density of 1x10^6 cells/well and 50 µL of test compound was added. Cells were then stimulated by the addition of 50 µL of phytohemagglutinin (PHA) (final concentration 20 µg/ml) and incubated at 37°C/5%CO2 for 20 hours. On the following day, the supernatants were collected and assayed for IL-2 levels by ELISA according to the manufacturer's protocols. The IC50 value was calculated as the concentration at which 50% of secreted IL-2 in vehicle is inhibited.

With Cn1nc(C(F)(F)F)cc1NC(=O)c1cc(-c2c(F)cccc2Cl)[nH]n1 [Example 1, 5-(2-chloro-6-fluorophenyl)-N-[1-methyl-3-(trifluoromethyl)-1H-pyrazol-5-yl]-1H-pyrazole-3-carboxamide] the IC50 [1] was 332 nM and the IC50 [2] was 130 nM.
In the case of COc1ccc(OC)c(NC(=O)c2cc(-c3c(F)cccc3Cl)[nH]n2)c1 [Example 5, 5-(2-chloro-6-fluorophenyl)-N-(2,5-dimethoxyphenyl)-1H-pyrazole-3-carboxamide], the IC50 [1] is reported as 135 nM and the IC50 [2] is reported as 62 nM.
Cn1nc(-c2ccccc2)cc1NC(=O)c1cc(-c2c(F)cccc2Cl)[nH]n1 [Example 6, 5-(2-chloro-6-fluorophenyl)-N-(1-methyl-3-phenyl-1H-pyrazol-5-yl)-1H-pyrazole-3-carboxamide] gave an IC50 [1] of 559 nM and an IC50 [2] of 410 nM.
